Measurements as given in ChEMBL document CHEMBL6087446, “Hypoxia Activated Nitric Oxide Donor Compounds for the Prevention and Treatment of Myocardial Hypoxia-Induced Injury” (J Med Chem, 2025).
The source made the active and inactive calls. No cut-off for these calls is given here.

How the values were obtained:
[1] = Induction of NO release in rat H9c2 cells at 10 uM by Griess reagent assay relative to control; format: functional
H9c2 [2] = test: Induction of NO release in rat H9c2 cells under hypoxia condition at 10 uM by Griess reagent assay relative to control; format: functional
H9c2 [3] = test: Prevention of hypoxia-induced TSP1 expression in rat H9c2 cells assessed as inhibition of TSP1 overexpression at 10 uM measured after 4 hrs incubation; format: functional, cell-based
H9c2 [4] = test: Prevention of hypoxia-induced TSC2-P expression in rat H9c2 cells assessed as inhibition of TSC2-P overexpression at 10 uM measured after 4 hrs incubation; format: functional, cell-based
Mus musculus [5] = test: Prevention of myocardial hypoxia injury in isoproterenol-induced male C57 mouse myocardial injury model assessed as increase in NO level in heart tissue at 8 mg/kg, ip once daily for 3 consecutive days; format: functional, organism-based; settings: time 3.0 day
Mus musculus [6] = test: Prevention of myocardial hypoxia injury in isoproterenol-induced male C57 mouse myocardial injury model assessed as pathological myocardial change by absence of infarction areas at 8 to 16 mg/kg, ip once daily for 3 consecutive days by hematoxylin and eosin staining based analysis; format: functional, organism-based; settings: dose 8-16 mg/kg, time 3.0 day
Mus musculus [7] = test: Prevention of myocardial hypoxia injury in isoproterenol-induced male C57 mouse myocardial injury model assessed as reduction in creatine kinase (CK) at 8 to 16 mg/kg, ip once daily for 3 consecutive days by immunohistochemistry; format: functional, organism-based; settings: dose 8-16 mg/kg, time 3.0 day
Mus musculus [8] = test: Prevention of myocardial hypoxia injury in isoproterenol-induced male C57 mouse myocardial injury model assessed as reduction in creatine kinase (CK) at 5 mg/kg, ip once daily for 3 consecutive days by immunohistochemistry; format: functional, organism-based; settings: time 3.0 day
[9] = AUC (0 to last) in female Balb/c at 8 mg/kg, ip mouse measured up to 24 hrs by LC-MS/MS analysis; format: ADME, organism-based; settings: in vivo
Mus musculus [10] = test: Prevention of myocardial hypoxia injury in isoproterenol-induced male C57 mouse myocardial injury model assessed as decrease in heart weight ratio at 8 mg/kg, ip once daily for 3 consecutive days (reference value: 0.68%); format: functional; parameters: scale not given: the % may be the effect or the level left; settings: time 3 day
Mus musculus [11] = test: Prevention of myocardial hypoxia injury in isoproterenol-induced male C57 mouse myocardial injury model assessed as pathological myocardial change by measuring cellular arrangements at 8 to 16 mg/kg, IG once daily for 3 consecutive days by hematoxylin and eosin staining based analysis; format: functional, organism-based; settings: dose 8-16 mg/kg, time 3.0 day
[12] = Toxicity in male C57 mouse assessed as physiological distress at 900 mg/kg, ip measured after 12 hrs of administration; format: organism-based; settings: in vivo
[13] = Toxicity in male C57 mouse assessed as mortality at 900 mg/kg, ip measured up to 14 days observation period; format: organism-based; settings: in vivo, 336 h, time < 14 day

**Q.** With `CN(N=O)c1ccc(OCc2ccc([N+](=O)[O-])c(F)c2)cc1` as the molecule, how does the Activity [1] read?
**A.** Its Activity is under 5%.

**Q.** And the Activity (H9c2 [2])?
**A.** Its Activity is 26.54%.

**Q.** And the Activity (H9c2 [3])?
**A.** Its Activity is “Active”.

**Q.** And the Activity (H9c2 [4])?
**A.** The Activity was “Active”.

**Q.** What about the Activity (Mus musculus [5]) of the same molecule?
**A.** The Activity was “Active”.

**Q.** And the Activity (Mus musculus [6])?
**A.** The Activity was “Active”.

**Q.** And the Activity (Mus musculus [7])?
**A.** Its Activity is “Active”.

**Q.** And the Activity (Mus musculus [8])?
**A.** Its Activity is “Active”.

**Q.** What about the AUC(0-t) at 24 h [9] of the same molecule?
**A.** Its AUC(0-t) at 24 h is 626 ng·h/mL.

**Q.** What about the Activity (Mus musculus [10]) of the same molecule?
**A.** Its Activity is 0.53%.

**Q.** What about the Activity (Mus musculus [11]) of the same molecule?
**A.** Its Activity is “Active”.

**Q.** And the Activity [12]?
**A.** The Activity was “Non-toxic”.

**Q.** What about the Activity [13] of the same molecule?
**A.** Its Activity is “Non-toxic”.
